{
  "source": "patent US9629891B2",
  "about": "“Products and methods for aortic abdominal aneurysm” (NATIONWIDE CHILDREN'S HOSPITAL, INC., priority 2011, dated 2017)",
  "key": {"[1]": {"tested_on": "AngII-induced mouse model of AAA", "assay": "Therapeutic Notch inhibition (start day 3 or day 8) in AngII-induced mouse model of AAA, Example 7", "assay_type": "in vivo", "conditions": "ApoE−/− mice", "source_text": "In the study, mice were divided into four groups: • ApoE^−/− mice with AngII plus vehicle for 28 days (n=6); • ApoE^−/− mice with AngII plus DAPT (7 days prior to AngII infusion, n=6); • ApoE^−/− mice with AngII plus DAPT (3 days after AngII infusion, n=9); and • ApoE^−/− mice with AngII plus DAPT (8 days after AngII infusion, n=9).\nThese time periods were carefully selected to determine the effect of Notch inhibition on the formation of AAA before the onset of disease (−7 days), at day 3 (onset of inflammation) and day 8 (elastin degradation and cellular remodeling).\nNOTCH inhibitor (DAPT; 10 mg/kg; […] in corn oil) given at day 3 and day 8 after the AngII infusion reduced the progression of active AAA in the mouse model."}, "RAW 264.7 [2]": {"tested_on": "RAW 264.7", "assay": "Inflammatory mediator mRNA expression (qRT-PCR) in unstimulated RAW cells", "assay_type": "cell-based", "conditions": "10 μM DAPT for 6 days, vs untreated cells", "experimental": "(§1) The aorta was isolated from experimental mice at day 28 of AngII infusion and immediately frozen in RNA-later (Ambion, Austin, Tex.). Abdominal aorta of equal length was cut from the abdominal region of ApoE^−/− and Notch1^+/−ApoE^−/− mice and RNA was extracted using RNAqueous kit (Ambion, Austin, Tex.). RAW cells (264.7) were obtained from ATCC (Manassas, Va.) and were cultured following the manufacturer's instructions. Naïve macrophages were collected from the peritoneal cavity of ApoE^−/− or Notch1^+/−ApoE^−/− mice by standard protocol [Hans et al., Cardiovasc. Pathol., 185:1894-902 (2011); Hans et al., Cardiovasc. Res., 78:429-439 (2008); Oumouna-Benachour et al., Circulation, 115:2442-2450 (2007)]. The isolated macrophages were cultured in RPMI containing 10% FCS for 3 days and were then treated with 100 nM LPS or diluent for 3 h in RPMI containing 1% FCS. Following treatment, the macrophages were washed with cold PBS and RNA was extracted using RNAeasy kit (Qiagen, Valencia, Calif.). cDNA was synthesized using SuperScript® VILO™ cDNA Synthesis Kit (Invitrogen, Carlsbad, Calif.) and subjected to qRT-PCR by SYBR Green RT-PCR kit (Applied Biosystems, Foster City Calif.) using Applied Biosystems 7500 Fast Real-Time PCR System (Foster City Calif.). qRT-PCR was performed in triplicate and fold change determined by standardization to 18S rRNA. Results were normalized to the controls. […]"}, "[3]": {"tested_on": "AngII-induced mouse model of AAA", "assay": "Progression of active AAA in AngII-induced mouse model, Example 8", "assay_type": "in vivo", "experimental": "Active aneurysm was introduced in ApoE^−/− mice (n=36) by administering AngII. DAPT (10 mg/kg; 3 times a week) was injected in these mice starting either 3 days (Group II; n=12) or 8 days (Group III; n=12) after AngII infusion. Group I (n=12) received vehicle (10% alcohol in corn oil) only. The time periods were chosen so that a small aortic dilation is established before DAPT is administered.\nThe increased collagen content in the aorta of ApoE^−/− mice in response to AngII provides stability to the tissue against sudden rupture."}, "[4]": {"tested_on": "AngII-induced mouse model of AAA", "assay": "Prophylactic Notch inhibition in AngII-induced mouse model of AAA", "assay_type": "in vivo", "conditions": "ApoE−/− mice", "experimental": "Mini osmotic pumps (Model 2004; Alzet, Cupertino, Calif.) containing AngII (1000 ng/min/kg) or saline were implanted subcutaneously in the neck region of anesthetized mice following standard protocol [Daugherty et al., J. Clin. Invest., 105:1605-1612 (2000)]. Three independent experiments were performed to determine the effect of Notch1 haploinsufficiency on the formation of AAA. In one of these three experiments the effects of pharmacological inhibition of Notch were tested on AAA formation. Mice (n=3) were injected with a Notch inhibitor, DAPT (10 mg/kg dissolved in 10% ethanol, 90% corn oil), three times a week subcutaneously starting one week before the implantation of osmotic pump and continuing for an additional 28 days until the mice were sacrificed, as explained for FIG. 6. [Loane et al., Nat. Med., 15:377-379 (2009); Lanz et al., J. Pharmacol. Exp. Ther., 305:864-871 (2003); Sjolund et al., J. Clin. Invest., 118:217-228 (2008)].\nTwo dimensional (B-mode) in vivo ultrasound images were obtained at weekly intervals after the implantation of osmotic pumps using a VisualSonics Vevo2100 imaging system (Ontario, Canada) with a mechanical transducer (MS400). After 28 days, the animals were euthanized and the aortas were dissected and fixed in 10% formalin. Minimum and maximum diameters of each vessel were determined by digitalized measurement (Zeiss AxioImager upright microscope with brightfield).\nHistological examination of the abdominal aorta of the AngII and saline treated mutant mice was performed. The abdominal region of the aorta were embedded in paraffin and serial sections ([…]) were obtained. Sections were stained with hematoxylin and eosin (HE), elastin staining (Sigma, St. Louis, Mo.), and terminal deoxynucleotidyl transferasemediated dUTP nick-end labeling (TUNEL) staining (Roche, Indianapolis, Ind.). Statistical comparisons were performed using either Student's t-test or one-way ANOVA followed by the Bonferroni's Multiple Comparison Test. GraphPad PRISM V5.0 (San Diego, Calif.) was used for these comparisons and a P value<0.05 was considered significant. […]"}, "RAW 264.7 [5]": {"tested_on": "RAW 264.7", "assay": "Inflammatory mediator mRNA expression (qRT-PCR) in LPS-stimulated RAW cells", "assay_type": "cell-based", "conditions": "pre-treatment with 10 μM DAPT, RAW cells with 100 ng/ml LPS for 3 hours, vs non-DAPT treated cells", "experimental": "as §1"}, "[6]": {"conditions": "AngII infusion 28 days, DAPT 10 mg/kg three times a week from one week before AngII, vs untreated ApoE−/− mice"}},
  "note": "Entries after “also recorded” stand apart in the source; their conditions may differ.",
  "data": [
    {"smiles": "C[C@H](NC(=O)Cc1cc(F)cc(F)c1)C(=O)N[C@H](C(=O)OC(C)(C)C)c1ccccc1", "note": "[DAPT, N—[N-(3,5-Difluorophenacetyl)-L-alanyl]-S-phenylglycine t-butyl ester]", "values": [
      {"measurement": "maximal abdominal aortic width at day 28", "setting": "[1]; AngII, DAPT treatment started at day 3 and day 8", "value": "significantly decreased"},
      {"measurement": "progression of active AAA", "setting": "[1]; DAPT 10 mg/kg in corn oil given at day 3 and day 8 after AngII infusion", "value": "reduced"},
      {"measurement": "expression of MCP-1, IL-6, TNF-α, CXCL-10, VEGF, iNOS, ICAM-1, and VCAM-1", "setting": "RAW 264.7 [2]", "value": "Decreased expression; also recorded: significantly decreased"},
      {"measurement": "luminal expansion of the abdominal aorta", "setting": "[3]; ApoE−/− mice, AngII, DAPT 10 mg/kg 3 times a week from day 3 (Group II) or day 8 (Group III), vs vehicle, echocardiography, p<0.05", "value": "significantly reduced"},
      {"measurement": "expression of MMP2 and MMP9 in the aortas", "setting": "[3]; Group II and Group III vs Group I (vehicle), quantitative real-time PCR and immunohistochemistry", "value": "decreased"},
      {"measurement": "monocyte chemotactic protein-1", "setting": "[3]; Group III (DAPT from day 8)", "value": "not associated with increased monocyte chemotactic protein-1"},
      {"measurement": "newly synthesized tropoelastin and collagen staining", "setting": "[3]; Group III (DAPT from day 8)", "value": "increased expression"},
      {"measurement": "macrophage content (CD-68)", "setting": "[3]; Group III (DAPT from day 8) vs Group I (vehicle), marginal increase vs Group II", "value": "significantly less than Group I"},
      {"measurement": "elastin fragmentation and aortic remodeling", "setting": "[3]; both groups (DAPT from day 3 or day 8), histology", "value": "prevented"},
      {"measurement": "aortic diameter", "setting": "[4]; [6]", "value": "statistically significant reduction"},
      {"measurement": "incidence of AAA", "setting": "[4]; [6]", "value": "statistically significant reduction"},
      {"measurement": "histologic analysis of the aorta", "setting": "[4]; AngII infusion, DAPT 10 mg/kg prophylactic, vs untreated mice", "value": "no evidence of abdominal aneurysm; also recorded: normal aortic wall architecture without infiltration of inflammatory cells"},
      {"measurement": "expression of MCP-1, IL-6, TNF-α, CXCL-10, VEGF, iNOS, and ICAM-1", "setting": "RAW 264.7 [5]", "value": "Decreased expression; also recorded: significantly reduced"}
    ]}
  ]
}
